Test results published in ChEMBL document CHEMBL1149151, “Macrocyclization in the design of non-phosphorus-containing Grb2 SH2 domain-binding ligands” (J Med Chem, 2004).
Several values for one entry are separate records, joined by “and”; a condition that tells them apart may be missing. Equal values may be shown once.

Assays:
[1] = target: T1, Growth factor receptor-bound protein 2 (Homo sapiens, UniProt P62993); assay: In vitro Growth factor receptor bound protein 2-binding affinity in ELISA method
[2] = target: T1, Growth factor receptor-bound protein 2; assay: In vitro Growth factor receptor bound protein 2-binding affinity in surface plasmon resonance (SPR) method
[3] = kd value surface plasmon resonance (SPR) method; assay type: ADME
[4] = koff value surface plasmon resonance (SPR) method; assay type: ADME

IC50 [1]	IC50 [2]	Kd [3]	Koff [4]	SMILES
22.1 nM	–	–	–	NC(=O)C[C@H](NC(=O)C1(NC(=O)[C@H](Cc2ccc(C(C(=O)O)C(=O)O)cc2)NC(=O)C(=O)O)CCCCC1)C(=O)NCCCc1cccc2ccccc12
10 nM	~80 nM	128 nM	0.11 s⁻¹	NC(=O)C[C@H](NC(=O)C1(NC(=O)[C@H](Cc2ccc(CP(=O)(O)O)cc2)NC(=O)C(=O)O)CCCCC1)C(=O)NCCCc1cccc2ccccc12
4.3 nM	12.1 nM	12.1 nM	0.044 s⁻¹	NC(=O)C[C@@H]1NC(=O)C2(CCCCC2)NC(=O)[C@@H](CC(=O)O)[C@@H](c2ccc(C(C(=O)[O-])C(=O)[O-])cc2)/C=C/C[C@@H](Cc2cccc3ccccc23)CNC1=O.[Na+].[Na+]
–	1.4 nM and 12.1 nM	0.9 nM	0.0056 s⁻¹	NC(=O)C[C@@H]1NC(=O)C2(CCCCC2)NC(=O)[C@@H](CC(=O)O)[C@@H](c2ccc(CP(=O)(O)O)cc2)/C=C/C[C@@H](Cc2cccc3ccccc23)CNC1=O
